Structures can show the parent of a compound that is named as a salt. Where two headings read alike, the source gives them in different places.
Key:
[1] = biological target: T1, SARS-CoV-2 PLpro (nsp3 1564–1878) (Severe acute respiratory syndrome coronavirus 2, UniProt P0DTD1); assay: biochemical; design: FRET-quenched peptide (Pro3) cleavage by PLpro, 10 min pre-incubation, slope over 20 min, normalised to no-compound control; settings: low concentration screen, read-out: % of control remaining
[2] = biological target: T1, SARS-CoV-2 PLpro (nsp3 1564–1878); assay: biochemical; design: FRET-quenched peptide (Pro3) cleavage by PLpro, 10 min pre-incubation, slope over 20 min, normalised to no-compound control; settings: high concentration screen, read-out: % of control remaining

Question: What does the source list for `CC[C@H](C)/C=C(C)/C=C/C1=CC2=C(Cl)C(=O)[C@](C)(OC(C)=O)C(=O)C2=CO1` [Sclerotiorin]?
Answer: remaining activity at 1.25 µM ([1]; Well no.=3604): 100%; remaining activity at 3.75 µM ([2]; Well no.=3604): 98.6%

Question: How did the remaining activity at 1.25 µM ([1]; Well no.=6555) turn out when `CN1[C@@H]2CC(O)C[C@H]1[C@@H]1O[C@@H]12` (some centres unmarked) [Scopine (hydrochloride)] was run?
Answer: 94.2%

Question: And the remaining activity at 3.75 µM ([2]; Well no.=6555)?
Answer: 101%

Question: Which remaining activity at 1.25 µM ([1]; Well no.=4914) does the source give for `CN1[C@@H]2CC(O)C[C@H]1[C@@H]1O[C@@H]12` (some centres unmarked) [Scopine HCl] here?
Answer: 87.1%

Question: What about the remaining activity at 3.75 µM ([2]; Well no.=4914) of the same molecule?
Answer: 84%

Question: `CN1[C@@H]2CC(O)C[C@H]1[C@@H]1O[C@@H]12` (some centres unmarked) [Scopine] was tested. Which remaining activity at 1.25 µM ([1]; Well no.=4910) did it give?
Answer: 95.8%

Question: And the remaining activity at 3.75 µM ([2]; Well no.=4910)?
Answer: 92.3%

Question: With `CN1[C@@H]2C[C@@H](OC(=O)[C@H](CO)c3ccccc3)C[C@H]1[C@@H]1O[C@@H]12` [Scopolamine (hydrobromide)] as the molecule, how does the remaining activity at 1.25 µM ([1]; Well no.=6670) read?
Answer: 102%

Question: And the remaining activity at 3.75 µM ([2]; Well no.=6670)?
Answer: 105%

Question: How did the remaining activity at 1.25 µM ([1]; Well no.=2243) turn out when `CCCC[N+]1(C)[C@H]2CC(OC(=O)C(CO)c3ccccc3)C[C@H]1[C@H]1O[C@H]12` (some centres unmarked) [Scopolamine N-butyl] was run?
Answer: 95%

Question: What about the remaining activity at 3.75 µM ([2]; Well no.=2243) of the same molecule?
Answer: 91.9%

Question: Which remaining activity at 1.25 µM ([1]; Well no.=3355) does the source give for `CCCC[N+]1(C)[C@@H]2C[C@@H](OC(=O)[C@H](CO)c3ccccc3)C[C@H]1[C@@H]1O[C@@H]12` (some centres unmarked) [Scopolamine N-butylbromide] here?
Answer: 99.9%

Question: What about the remaining activity at 3.75 µM ([2]; Well no.=3355) of the same molecule?
Answer: 98.9%

Question: Which results are given for `CN1[C@@H]2C[C@@H](OC(=O)[C@H](CO)c3ccccc3)C[C@H]1[C@@H]1O[C@@H]12` [Scopolamine]?
Answer: remaining activity at 1.25 µM ([1]; Well no.=2245): 100%; remaining activity at 3.75 µM ([2]; Well no.=2245): 100%

Question: Which results are given for `COc1cc2ccc(=O)oc2cc1O` [Scopoletin]?
Answer: remaining activity at 1.25 µM ([1]; Well no.=3461): 103%; remaining activity at 3.75 µM ([2]; Well no.=3461): 102%

Question: With `O=C1C(C2=C3c4ccccc4NC3/C(=C\c3ccc(O)cc3)C2=O)=C2C(=Nc3ccccc32)/C1=C\c1ccc(O)cc1` (centres unmarked) [Scytonemin, Lyngbya sp.] as the molecule, how does the remaining activity at 1.25 µM ([1]; Well no.=2669) read?
Answer: 96.6%

Question: And the remaining activity at 3.75 µM ([2]; Well no.=2669)?
Answer: 101%

Question: Which remaining activity at 1.25 µM ([1]; Well no.=1124) does the source give for `C[Se]C[C@H](N)C(=O)O` [Se-(methyl)selenocysteine hydrochloride] here?
Answer: 97.3%

Question: What about the remaining activity at 3.75 µM ([2]; Well no.=1124) of the same molecule?
Answer: 95.6%

Question: `Cc1ncc([N+](=O)[O-])n1CC(C)O` (centres unmarked) [Secnidazole] was tested. Which remaining activity at 1.25 µM ([1]; Well no.=2247) did it give?
Answer: 99.7%

Question: And the remaining activity at 3.75 µM ([2]; Well no.=2247)?
Answer: 97.7%

Question: Which results are given for `CO[C@@H](C[C@@H]1CC[C@@H](C)[C@](O)(C(=O)C(=O)N2CCCC[C@H]2C(=O)O)O1)/C(C)=C/C=C/C=C/[C@@H](C)C[C@@H](C)C(=O)[C@H](OC)[C@H](O)/C(C)=C/[C@@H](C)C(=O)/C=C/[C@H](C)C[C@@H]1CC[C@@H](O)[C@H](OC)C1` [Seco Rapamycin (sodium salt)]?
Answer: remaining activity at 1.25 µM ([1]; Well no.=7642): 97.4%; remaining activity at 3.75 µM ([2]; Well no.=7642): 95.9%

Question: How did the remaining activity at 1.25 µM ([1]; Well no.=3749) turn out when `O=C1C=C2C=C[C@@H]3C[C@@]2(O1)[C@H]1CCCCN31` [Securinine] was run?
Answer: 99.6%

Question: What about the remaining activity at 3.75 µM ([2]; Well no.=3749) of the same molecule?
Answer: 100%

Question: For `CCCCC1OC(=O)C2=CCCCC21` (centres unmarked) [Sedanolide], which remaining activity at 1.25 µM ([1]; Well no.=3751) is on record?
Answer: 92.6%

Question: What about the remaining activity at 3.75 µM ([2]; Well no.=3751) of the same molecule?
Answer: 98.7%

Question: For `CC(C)[C@@H]1NC(=O)[C@H](CCCCN)NC(=O)[C@@H](Cc2c[nH]c3ccccc23)NC(=O)[C@H](Cc2ccc(O)cc2)NC(=O)[C@H](C)N(C)C(=O)[C@H](Cc2ccccc2)NC1=O` [Seglitide], which remaining activity at 1.25 µM ([1]; Well no.=1452) is on record?
Answer: 97%

Question: What about the remaining activity at 3.75 µM ([2]; Well no.=1452) of the same molecule?
Answer: 97.2%

Question: Which results are given for `C[Se]CC[C@H](N)C(=O)O` [Selenomethionine]?
Answer: remaining activity at 1.25 µM ([1]; Well no.=4141): 97.8%; remaining activity at 3.75 µM ([2]; Well no.=4141): 98.7%

Question: Which results are given for `CC(C)[C@H](O)C(=O)N[C@@H](C)C(=O)N[C@@H]1C(=O)N(C)CCc2ccccc21` [Semagacestat (LY450139)]?
Answer: remaining activity at 1.25 µM ([1]; Well no.=4614): 102%; remaining activity at 3.75 µM ([2]; Well no.=4614): 101%

Question: Which remaining activity at 1.25 µM ([1]; Well no.=1406) does the source give for `NNC(N)=O` [Semicarbazide hydrochloride] here?
Answer: 99.7%

Question: And the remaining activity at 3.75 µM ([2]; Well no.=1406)?
Answer: 99.4%

Question: For `C/C=C1/C[C@@H](C)[C@@](C)(O)C(=O)OCC2=CCN3CC[C@@H](OC1=O)[C@@H]23` [Senecionine], which remaining activity at 1.25 µM ([1]; Well no.=3464) is on record?
Answer: 98.3%

Question: And the remaining activity at 3.75 µM ([2]; Well no.=3464)?
Answer: 99.1%

Question: With `C[C@H](O)C(=O)C1=Nc2c(nc(N)[nH]c2=O)NC1` [Sepiapterin] as the molecule, how does the remaining activity at 1.25 µM ([1]; Well no.=1183) read?
Answer: 99.7%

Question: And the remaining activity at 3.75 µM ([2]; Well no.=1183)?
Answer: 96.3%

Question: Which remaining activity at 1.25 µM ([1]; Well no.=3857) does the source give for `CC1=C(C)C(=O)C(C(CCCCCC(=O)O)c2ccccc2)=C(C)C1=O` (centres unmarked) [Seratrodast] here?
Answer: 98.1%

Question: And the remaining activity at 1.25 µM ([1]; Well no.=7375)?
Answer: 103%

Question: What about the remaining activity at 3.75 µM ([2]; Well no.=3857) of the same molecule?
Answer: 102%

Question: What about the remaining activity at 3.75 µM ([2]; Well no.=7375) of the same molecule?
Answer: 103%

Question: What does the source list for `c1ccc2c(CCNc3ccc(Nc4ccncc4)cc3)c[nH]c2c1` [Serdemetan]?
Answer: remaining activity at 1.25 µM ([1]; Well no.=6730): 97.7%; remaining activity at 3.75 µM ([2]; Well no.=6730): 101%

Question: For `NCCc1c[nH]c2ccc(O)cc12` [Serotonin hydrochloride], which remaining activity at 1.25 µM ([1]; Well no.=616) is on record?
Answer: 98.2%

Question: What about the remaining activity at 3.75 µM ([2]; Well no.=616) of the same molecule?
Answer: 100%

Question: What does the source list for `Clc1ccc(C(Cn2ccnc2)OCc2csc3c(Cl)cccc23)c(Cl)c1` (centres unmarked) [Sertaconazole nitrate]?
Answer: remaining activity at 1.25 µM ([1]; Well no.=5411): 89.7%; remaining activity at 3.75 µM ([2]; Well no.=5411): 93%

Question: With `Clc1ccc(C(Cn2ccnc2)OCc2csc3c(Cl)cccc23)c(Cl)c1` (centres unmarked) [Sertaconazole] as the molecule, how does the remaining activity at 1.25 µM ([1]; Well no.=1840) read?
Answer: 101%

Question: And the remaining activity at 3.75 µM ([2]; Well no.=1840)?
Answer: 98.3%

Question: How did the remaining activity at 1.25 µM ([1]; Well no.=5420) turn out when `O=C1NCCN1CCN1CCC(c2cn(-c3ccc(F)cc3)c3ccc(Cl)cc23)CC1` [Sertindole] was run?
Answer: 98.4%

Question: And the remaining activity at 1.25 µM ([1]; Well no.=6604)?
Answer: 93.4%

Question: And the remaining activity at 3.75 µM ([2]; Well no.=5420)?
Answer: 102%

Question: What about the remaining activity at 3.75 µM ([2]; Well no.=6604) of the same molecule?
Answer: 96.1%

Question: What does the source list for `O=C(O)Cn1c2c(c3cc(F)ccc31)CN(C(=O)c1cccc3ccccc13)CC2` [Setipiprant]?
Answer: remaining activity at 1.25 µM ([1]; Well no.=7707): 99.9%; remaining activity at 3.75 µM ([2]; Well no.=7707): 103%

Question: With `CN1CCC2=C(C1)c1ccccc1Cc1ccccc12` [Setiptiline (maleate)] as the molecule, how does the remaining activity at 1.25 µM ([1]; Well no.=6907) read?
Answer: 101%

Question: And the remaining activity at 3.75 µM ([2]; Well no.=6907)?
Answer: 101%

Question: Which results are given for `CN1CCC2=C(C1)c1ccccc1Cc1ccccc12` [Setiptiline]?
Answer: remaining activity at 1.25 µM ([1]; Well no.=6857): 98.8%; remaining activity at 3.75 µM ([2]; Well no.=6857): 94.5%

Question: How did the remaining activity at 1.25 µM ([1]; Well no.=3116) turn out when `O=C(O)C1=C[C@@H](O)[C@@H](O)[C@H](O)C1` [Shikimic acid] was run?
Answer: 98.2%

Question: What about the remaining activity at 1.25 µM ([1]; Well no.=7209) of the same molecule?
Answer: 104%

Question: And the remaining activity at 3.75 µM ([2]; Well no.=3116)?
Answer: 98.6%

Question: What about the remaining activity at 3.75 µM ([2]; Well no.=7209) of the same molecule?
Answer: 102%

Question: How did the remaining activity at 1.25 µM ([1]; Well no.=2249) turn out when `CC(C)CC(N(C)C)C1(c2ccc(Cl)cc2)CCC1` (centres unmarked) [Sibutramine] was run?
Answer: 95.2%

Question: And the remaining activity at 3.75 µM ([2]; Well no.=2249)?
Answer: 98.7%

Question: With `CN/C(=N\c1ccc(C2=NNC(=O)CC2C)cc1)NC#N` (centres unmarked) [Siguazodan] as the molecule, how does the remaining activity at 1.25 µM ([1]; Well no.=2154) read?
Answer: 91.7%

Question: What about the remaining activity at 3.75 µM ([2]; Well no.=2154) of the same molecule?
Answer: 94.5%

Question: What does the source list for `CCCc1nn(C)c2c(=O)[nH]c(-c3cc(S(=O)(=O)N4CCN(C)CC4)ccc3OCC)nc12` [Sildenafil Mesylate]?
Answer: remaining activity at 1.25 µM ([1]; Well no.=8206): 106%; remaining activity at 3.75 µM ([2]; Well no.=8206): 103%
